Test results from ChEMBL document CHEMBL1128594, “Synthesis and antimalarial activities of 12 beta-allyldeoxoartemisinin and its derivatives” (J Med Chem, 1995).
Converted amounts (≈) assume the structure as drawn.

Key:
Plasmodium falciparum [1] = experiment: In vitro antimalarial activity against drug-resistant Plasmodium falciparum W-2; assay type: functional, organism-based
Plasmodium falciparum [2] = experiment: In vitro antimalarial activity against drug-resistant Plasmodium falciparum D6; assay type: functional, organism-based

Work on `C=CC[C@H]1O[C@@H]2O[C@@]3(C)CC[C@H]4[C@H](C)CC[C@@H]([C@H]1C)[C@@]24OO3` yielded an IC50 (Plasmodium falciparum [1]) of 0.59 ng/mL (≈ 1.91 nM) and an IC50 (Plasmodium falciparum [2]) of 1.07 ng/mL (≈ 3.47 nM).

For `CC[C@H]1O[C@@H]2O[C@@]3(C)CC[C@H]4[C@H](C)CC[C@@H]([C@H]1C)[C@@]24OO3`, the IC50 (Plasmodium falciparum [1]) was 0.29 ng/mL (≈ 0.978 nM) and the IC50 (Plasmodium falciparum [2]) was 1.09 ng/mL (≈ 3.68 nM).

`CCC[C@H]1O[C@@H]2O[C@@]3(C)CC[C@H]4[C@H](C)CC[C@@H]([C@H]1C)[C@@]24OO3` gave an IC50 (Plasmodium falciparum [1]) of 0.16 ng/mL (≈ 0.515 nM) and an IC50 (Plasmodium falciparum [2]) of 0.41 ng/mL (≈ 1.32 nM).

`C[C@H]1[C@@H](CCO)O[C@@H]2OC3(C)CC[C@H]4[C@H](C)CC[C@@H]1[C@@]24OO3` (single isomer, unassigned) showed an IC50 (Plasmodium falciparum [1]) of 0.59 ng/mL (≈ 1.89 nM) and an IC50 (Plasmodium falciparum [2]) of 2.04 ng/mL (≈ 6.53 nM).

Compound `C[C@@H]1CC[C@H]2[C@@H](C)CO[C@@H]3OC4(C)CC[C@@H]1[C@]32OO4` (single isomer, unassigned) [DEOXOARTEMISININ] has an IC50 (Plasmodium falciparum [1]) of 0.48 ng/mL (≈ 1.79 nM) and an IC50 (Plasmodium falciparum [2]) of 1.11 ng/mL (≈ 4.14 nM).

With `C[C@@H]1CC[C@H]2[C@@H](C)C(=O)O[C@@H]3O[C@@]4(C)CC[C@@H]1[C@]32OO4` [ARTEMISININ] the IC50 (Plasmodium falciparum [1]) was 0.32 ng/mL (≈ 1.13 nM) and the IC50 (Plasmodium falciparum [2]) was 0.86 ng/mL (≈ 3.05 nM).

In the case of `CCO[C@H]1O[C@@H]2O[C@@]3(C)CC[C@H]4[C@H](C)CC[C@@H]([C@H]1C)[C@@]24OO3` [ARTEMOTIL], the IC50 (Plasmodium falciparum [1]) is reported as 0.18 ng/mL (≈ 0.576 nM) and the IC50 (Plasmodium falciparum [2]) is reported as 0.34 ng/mL (≈ 1.09 nM).
